Reference: the NIST ThermoML archive (doi:10.1021/acs.jced.8b00591)

Assay: xn = mol fraction of the nth substance listed
Conditions: 101.3 kPa, Liquid; for viscosity: Falling or rolling sphere viscometry; for mass density: Vibrating tube method

CCn1cc[n+](C)c1.O=S(=O)([N-]S(=O)(=O)C(F)(F)F)C(F)(F)F + CCOC(=O)OCC
Conditions | mass density [kg/m3] | viscosity [mPa·s]
288.15 K, x1 = 0.0991 | 1090.45 | 1.938
288.15 K, x1 = 0.1982 | 1179.3 | 3.368
288.15 K, x1 = 0.3024 | 1254.64 | 5.628
288.15 K, x1 = 0.3979 | 1312.21 | 8.533
288.15 K, x1 = 0.4982 | 1362.22 | 12.38
288.15 K, x1 = 0.5963 | 1404.91 | 17.23
288.15 K, x1 = 0.6992 | 1442.62 | 24.14
288.15 K, x1 = 0.7987 | 1475.05 | 31.13
288.15 K, x1 = 0.9 | 1503.75 | 39.07
288.15 K, x1 = 1 | 1528.55 | 49.41
293.15 K, x1 = 0.0991 | 1085.01 | 1.769
293.15 K, x1 = 0.1982 | 1173.95 | 3.032
293.15 K, x1 = 0.3024 | 1249.39 | 4.987
293.15 K, x1 = 0.3979 | 1306.99 | 7.45
293.15 K, x1 = 0.4982 | 1357.04 | 10.66
293.15 K, x1 = 0.5963 | 1399.78 | 14.65
293.15 K, x1 = 0.6992 | 1437.5 | 20.32
293.15 K, x1 = 0.7987 | 1469.95 | 25.96
293.15 K, x1 = 0.9 | 1498.66 | 32.29
293.15 K, x1 = 1 | 1523.47 | 40.36
298.15 K, x1 = 0.0991 | 1079.54 | 1.623
298.15 K, x1 = 0.1982 | 1168.6 | 2.746
298.15 K, x1 = 0.3024 | 1244.11 | 4.452
298.15 K, x1 = 0.3979 | 1301.78 | 6.552
298.15 K, x1 = 0.4982 | 1351.87 | 9.269
298.15 K, x1 = 0.5963 | 1394.64 | 12.59
298.15 K, x1 = 0.6992 | 1432.38 | 17.65
298.15 K, x1 = 0.7987 | 1464.86 | 21.91
298.15 K, x1 = 0.9 | 1493.58 | 27.04
298.15 K, x1 = 1 | 1518.39 | 33.52
303.15 K, x1 = 0.0991 | 1074.07 | 1.495
303.15 K, x1 = 0.1982 | 1163.23 | 2.498
303.15 K, x1 = 0.3024 | 1238.83 | 3.992
303.15 K, x1 = 0.3979 | 1296.56 | 5.819
303.15 K, x1 = 0.4982 | 1346.7 | 8.127
303.15 K, x1 = 0.5963 | 1389.51 | 10.93
303.15 K, x1 = 0.6992 | 1427.28 | 15.41
303.15 K, x1 = 0.7987 | 1459.77 | 18.79
303.15 K, x1 = 0.9 | 1488.51 | 22.93
303.15 K, x1 = 1 | 1513.34 | 28.35
308.15 K, x1 = 0.0991 | 1068.56 | 1.389
308.15 K, x1 = 0.1982 | 1157.86 | 2.288
308.15 K, x1 = 0.3024 | 1233.56 | 3.607
308.15 K, x1 = 0.3979 | 1291.36 | 5.196
308.15 K, x1 = 0.4982 | 1341.55 | 7.192
308.15 K, x1 = 0.5963 | 1384.4 | 9.572
308.15 K, x1 = 0.6992 | 1422.19 | 13.37
308.15 K, x1 = 0.7987 | 1454.71 | 16.59
308.15 K, x1 = 0.9 | 1483.46 | 19.65
308.15 K, x1 = 1 | 1508.3 | 24.15
313.15 K, x1 = 0.0991 | 1063.05 | 1.29
313.15 K, x1 = 0.1982 | 1152.48 | 2.102
313.15 K, x1 = 0.3024 | 1228.28 | 3.278
313.15 K, x1 = 0.3979 | 1286.15 | 4.672
313.15 K, x1 = 0.4982 | 1336.41 | 6.41
313.15 K, x1 = 0.5963 | 1379.3 | 8.445
313.15 K, x1 = 0.6992 | 1417.12 | 11.6
313.15 K, x1 = 0.7987 | 1449.66 | 14.56
313.15 K, x1 = 0.9 | 1478.42 | 17.36
313.15 K, x1 = 1 | 1503.28 | 20.76
318.15 K, x1 = 0.0991 | 1057.53 | 1.204
318.15 K, x1 = 0.1982 | 1147.11 | 1.939
318.15 K, x1 = 0.3024 | 1223.01 | 2.993
318.15 K, x1 = 0.3979 | 1280.95 | 4.223
318.15 K, x1 = 0.4982 | 1331.27 | 5.749
318.15 K, x1 = 0.5963 | 1374.2 | 7.525
318.15 K, x1 = 0.6992 | 1412.06 | 10.14
318.15 K, x1 = 0.7987 | 1444.62 | 12.72
318.15 K, x1 = 0.9 | 1473.41 | 15.35
318.15 K, x1 = 1 | 1498.27 | 17.9
323.15 K, x1 = 0.0991 | 1051.98 | 1.121
323.15 K, x1 = 0.1982 | 1141.72 | 1.794
323.15 K, x1 = 0.3024 | 1217.74 | 2.746
323.15 K, x1 = 0.3979 | 1275.76 | 3.839
323.15 K, x1 = 0.4982 | 1326.13 | 5.184
323.15 K, x1 = 0.5963 | 1369.11 | 6.739
323.15 K, x1 = 0.6992 | 1407.01 | 8.895
323.15 K, x1 = 0.7987 | 1439.6 | 11.15
323.15 K, x1 = 0.9 | 1468.41 | 13.53
323.15 K, x1 = 1 | 1493.28 | 15.93
328.15 K, x1 = 0.0991 | 1046.42 | 1.049
328.15 K, x1 = 0.1982 | 1136.32 | 1.667
328.15 K, x1 = 0.3024 | 1212.46 | 2.528
328.15 K, x1 = 0.3979 | 1270.58 | 3.509
328.15 K, x1 = 0.4982 | 1321.01 | 4.704
328.15 K, x1 = 0.5963 | 1364.03 | 6.075
328.15 K, x1 = 0.6992 | 1401.98 | 7.875
328.15 K, x1 = 0.7987 | 1434.59 | 9.813
328.15 K, x1 = 0.9 | 1463.42 | 11.93
328.15 K, x1 = 1 | 1488.31 | 14.26
